From patent US6429204B1, “Method of inhibiting cancer growth” (University of Miami, priority 1997, dated 2002)
Where two headings read alike, the source gives them in different places. Marks after values point to notes of the source that are not given here.

Experiments:
[1] = test system: in vitro activated gelatinases (MMPs) from MAT LyLu and TSU PR1 conditioned medium; assay: 3H-gelatin gelatinase activity assay on processed conditioned medium of prostate cancer cells; assay type: biochemical; conditions: for IC50: read-out: 50% inhibition dose (IC50), activated gelatinases
Experimental: The effects of CMT-3 and doxycycline on gelatinase activity or expression by prostate cancer cells were tested. First, we tested the capacity of CMT-3 and doxycycline to inhibit MMP secretion into culture medium. Gelatinase activity was measured using a method adapted from the method of Dean and Woessner (1985). Conditioned culture medium was collected from MAT LyLu and TSU PR1 cells treated with CMT-3 or doxycycline for two days. The serum-free culture medium comprised RPMI 1640 basal medium containing insulin (5 μg/mL), transferrin (5 μg/mL), selenious acid ([…]), and gentamicin (2 μg/mL). […] (Dean et al. 1987; Woessner 1991.) The dialyzed medium was assayed for gelatinase activity following activation of latent MMPs with 1 mM p-aminophenyl mercuric acetate (APMA) for 30 min at 37° C. The assay mix was 25 μg ^3H-gelatin (prepared from heat-denatured ^3H-acetylated acid-soluble collagen), 0.1 mL of processed culture-conditioned medium, 1 mM phenylmethyl sulfonyl fluoride (PMSF) in a total volume of 0.5 mL of an assay buffer (20 mM Tris-HCl, pH 7.4, 30 mM NaCl, 0.005% Brij35, 10 mM CaCl2, 2 μM ZnSO4, and 0.02% NaN3). In some cases, 1 mM CaCl2 (instead of 10 mM) was used. Blanks were obtained by adding 1 mM 1,10-phenanthroline. Doxycycline or CMT-3 were added to the assay mixture following activation of the latent MMPs and just before adding the substrate ^3H-gelatin.
MMP activity in the culture media was examined at 1 mM and 10 mM CaCl2, with no change in [Zn^2+] in the assay buffer. We employed 1 mM CaCl2, as this concentration is closer to physiological concentration, and 10 mM CaCl2, as it is reported to be the optimum concentration in in vitro assays (Woessner 1991). As is shown in Table 2, both CMT-3 and doxycycline inhibited in vitro activated gelatinases.

Gelatinase A = target: T1, Gelatinase A (Homo sapiens, UniProt P08253); assay: Zymography with densitometry of C8161 conditioned medium, gelatinase A; assay type: cell-based; conditions: 50 μg/mL, 24 hr
T1 construct: endogenous in cells; host or cells: C8161
T1 sequence (P08253 110-660): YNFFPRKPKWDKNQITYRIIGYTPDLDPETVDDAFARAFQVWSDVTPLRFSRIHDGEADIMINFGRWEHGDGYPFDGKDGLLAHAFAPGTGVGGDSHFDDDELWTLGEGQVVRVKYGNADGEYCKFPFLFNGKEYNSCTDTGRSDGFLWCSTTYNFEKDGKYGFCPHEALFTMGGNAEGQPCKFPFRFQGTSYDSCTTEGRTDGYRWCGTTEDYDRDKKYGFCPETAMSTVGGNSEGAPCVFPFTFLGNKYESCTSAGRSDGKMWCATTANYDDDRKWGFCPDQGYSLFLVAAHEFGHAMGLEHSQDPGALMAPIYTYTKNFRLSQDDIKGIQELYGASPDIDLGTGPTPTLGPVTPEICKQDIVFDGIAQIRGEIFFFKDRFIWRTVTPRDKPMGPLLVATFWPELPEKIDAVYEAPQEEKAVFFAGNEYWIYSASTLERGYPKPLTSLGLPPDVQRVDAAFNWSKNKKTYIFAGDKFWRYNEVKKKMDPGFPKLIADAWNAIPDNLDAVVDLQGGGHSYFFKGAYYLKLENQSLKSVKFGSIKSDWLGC
Experimental: Six hundred thousand (6×10^5) C8161 cells were seeded per well in a 12-well dish coated with a laminin/collagen IV/gelatin matrix in DMEM plus Mito+ and 0.1% gentamicin sulfate. After approximately 1 hr incubation to allow the cells to attach, 50 μg/mL of either doxycycline or one of the other CMTs was added per well and the dish then placed in a 37° C. humidified 5% CO2 incubator. After 24 hr, the supernatants were removed and centrifuged to remove any cells or debris. One volume of Laemmli sample buffer minus reductant was added to two volumes of the medium, and this sample electrophoresed without prior heating or boiling on a 10% SDS-PAGE containing 0.1% gelatin (samples normalized based on the same number of cells per volume of medium per time of incubation). After electrophoresis, the gels were washed with gentle shaking at room temperature for 30 min in 50 mM Tris-HCl (pH 7.5) plus 2.5% TRITON® X100 plus 50 μg/mL of the corresponding CMT used in the original treatment. The gel was then placed in incubation buffer (50 mM Tris-Cl/10 mM CaCl2/150 mM NaCl/0.05% NaN3) also containing 50 μg/mL of the corresponding CMT, and incubated at 37° C. for 20-24 hr. The gels were stained with Coomassie BBR-250, then destained with 10% methanol/10% acetic acid in water until the wash remained clear. A photographic negative of the gel was digitized using a video camera and Snappy Video Snapshot system (Play Inc., Rancho Cordova, Calif.). An integrated density was determined for each of the cleared zones of proteolysis using the software ImagePC8α (freely available from the National Institutes of Health), and the corresponding changes in gelatinolytic activities reported compared to the control samples normalized to a value of 1.0.

COLO 205 Cells = assay: MTS cytotoxicity assay, COLO 205; conditions: two days
Experimental: A panel of chemically modified tetracycline compounds and doxycycline were tested for cytotoxicity against two carcinomas: COLO 205 (a human colon carcinoma-derived cell line) and the E-10 clone of MDA-MB-231 (a human breast carcinoma-derived cell line). Cytoxicity was measured using a conventional assay for viability with a tetrazolium salt (MTS). Cells were grown in media containing the CMTs at concentrations ranging from 5 μM to 100 μM for two days. The cells were then incubated with the MTS for several hours before removal of the supernatant medium for determination of formazan, which is generated only by the viable cells. Results are expressed as percent cytotoxicity, which is simply the percent decline in measured formazan concentration in the sampled medium.

NC(=O)C1=C(O)CC2CC3Cc4cccc(O)c4C(=O)C3=C(O)C2(O)C1=O (centres unmarked) [CMT-3, 6-demethyl-6-deoxy-4-de(dimethylamino)tetracycline]
Percent Inhibition (gelatinase activity) ([1]; 0.25 μM drug, 10 mM CaCl2): 31.5 ± 1.2% | Percent Inhibition (gelatinase activity) ([1]; 0.50 μM drug, 1 mM CaCl2): 84.8 ± 10.1% | Percent Inhibition (gelatinase activity) ([1]; 0.50 μM drug, 10 mM CaCl2): 37.8 ± 7.5^b % | Percent Inhibition (gelatinase activity) ([1]; 1.0 μM drug, 1 mM CaCl2): 96.7 ± 4.6^a % | Percent Inhibition (gelatinase activity) ([1]; 1.0 μM drug, 10 mM CaCl2): 45.1 ± 2.9% | Percent Inhibition (gelatinase activity) ([1]; 2.0 μM drug, 10 mM CaCl2): 51.2 ± 2.6% | Percent Inhibition (gelatinase activity) ([1]; 5.0 μM drug, 1 mM CaCl2): 97.2 ± 2.9% | Percent Inhibition (gelatinase activity) ([1]; 5.0 μM drug, 10 mM CaCl2): 52.4 ± 3.5% | Percent Inhibition (gelatinase activity) ([1]; 10 μM drug, 1 mM CaCl2): 100% | Percent Inhibition (gelatinase activity) ([1]; 10 μM drug, 10 mM CaCl2): 69.9 ± 10.5% | Percent Inhibition (gelatinase activity) ([1]; 20 μM drug, 10 mM CaCl2): 78.9 ± 11.4% | Percent Inhibition (gelatinase activity) ([1]; 50 μM drug, 10 mM CaCl2): 94.2 ± 3.3% | IC50 ([1]; 1 mM CaCl2): 500 nM | IC50 ([1]; 10 mM CaCl2): ~1500 nM | Gelatinase A, integrated density normalized to control 1.00 (Gelatinase A): 0.22 | percent cytotoxicity (COLO 205 Cells; 5 μM): 25.9% | percent cytotoxicity (COLO 205 Cells; 10 μM): 38.9% | percent cytotoxicity (COLO 205 Cells; 20 μM): 37% | percent cytotoxicity (COLO 205 Cells; 50 μM): 86.7% | percent cytotoxicity (COLO 205 Cells; 100 μM): 86.7%
